No end group written: not given here.
How the values were obtained:
[1] = system: S. aureus USA300; experiment: Antimicrobial testing (bactericidal, CFU) against S. aureus USA300; assay type: cell-based, Staphylococcus aureus; conditions: for S. aureus USA300 CFU normalized to untreated control (1.00): 3 h, mean of at least three experiments
Experimental: Fig. 5 Synergistic action of lugdunin and human antimicrobial peptides (AMPs) kills methicillin-resistant S. aureus (MRSA). a, c Logarithmically grown (3 × 10^6) S. aureus were incubated with indicated combinations of lugdunin and human AMPs in phosphate-buffered saline (PBS) containing 0.1% tryptic soy broth (TSB) at 37 °C orbital shaking (white bar, untreated; dark gray bars, AMP treatment; middle gray bars, lugdunin treatment; light gray bars, AMP and lugdunin combination treatment). After 3 h of incubation, several dilutions of the bacterial suspensions were plated onto TSB agar plates and incubated overnight at 37 °C. The next day S. aureus colony-forming units (CFUs) were counted. Each experiment was performed in triplicates. Data represent the percentage of CFU of at least three independent experiments normalized to the untreated control ± s.e.m. Significant differences to control treatments were analyzed by ordinary one-way analysis of variance (ANOVA) followed by Dunnett’s multiple comparisons test (*P < 0.05; **P < 0.01; ***P < 0.001; ****P < 0.0001). b Combination indices (CIs) were calculated using CompuSyn (ComboSyn Inc.) and indicated in median effect plots as a function of the bacteria fractions affected by the combinatorial peptide treatment. CI values of 1 indicate additive effects, whereas values <1 and >1 indicate synergistic and antagonistic effects, respectively. Source data are provided as a Source Data file TEXT PRINTED IN THE PICTURE: (a) DCD-1: S. aureus USA300, Lugdunin μM 0: 1.00 (DCD-1 μM: 0); S. aureus USA300, Lugdunin μM 1: 1.08 (DCD-1 μM: 0); S. aureus USA300, Lugdunin μM 2: 1.11 (DCD-1 μM: 0); S. aureus USA300, Lugdunin μM 3: 0.97 (DCD-1 μM: 0); S. aureus USA300, Lugdunin μM 0: 1.06 (DCD-1 μM: 1); S. aureus USA300, Lugdunin μM 1: 0.91 (DCD-1 μM: 1); S. aureus USA300, Lugdunin μM 2: 0.85 (DCD-1 μM: 1); S. aureus USA300, Lugdunin μM 3: 0.60 (DCD-1 μM: 1); S. aureus USA300, Lugdunin μM 0: 1.19 (DCD-1 μM: 2); S. aureus USA300, Lugdunin μM 1: 0.84 (DCD-1 μM: 2); S. aureus USA300, Lugdunin μM 2: 0.43 (DCD-1 μM: 2); S. aureus USA300, Lugdunin μM 3: 0.21 (DCD-1 μM: 2) | (a) DCD-1L: S. aureus USA300, Lugdunin μM 0: 1.00 (DCD-1L μM: 0); S. aureus USA300, Lugdunin μM 1: 1.08 (DCD-1L μM: 0); S. aureus USA300, Lugdunin μM 2: 1.11 (DCD-1L μM: 0); S. aureus USA300, Lugdunin μM 3: 0.97 (DCD-1L μM: 0); S. aureus USA300, Lugdunin μM 0: 1.13 (DCD-1L μM: 1); S. aureus USA300, Lugdunin μM 1: 0.98 (DCD-1L μM: 1); S. aureus USA300, Lugdunin μM 2: 0.68 (DCD-1L μM: 1); S. aureus USA300, Lugdunin μM 3: 0.07 (DCD-1L μM: 1); S. aureus USA300, Lugdunin μM 0: 1.37 (DCD-1L μM: 2); S. aureus USA300, Lugdunin μM 1: 0.60 (DCD-1L μM: 2); S. aureus USA300, Lugdunin μM 2: 0.42 (DCD-1L μM: 2); S. aureus USA300, Lugdunin μM 3: 0.02 (DCD-1L μM: 2) | (a) IL-37: S. aureus USA300, Lugdunin μM 0: 1.00 (IL-37 μM: 0); S. aureus USA300, Lugdunin μM 1: 1.08 (IL-37 μM: 0); S. aureus USA300, Lugdunin μM 2: 1.11 (IL-37 μM: 0); S. aureus USA300, Lugdunin μM 3: 0.97 (IL-37 μM: 0); S. aureus USA300, Lugdunin μM 0: 1.86 (IL-37 μM: 1); S. aureus USA300, Lugdunin μM 1: 1.27 (IL-37 μM: 1); S. aureus USA300, Lugdunin μM 2: 1.23 (IL-37 μM: 1); S. aureus USA300, Lugdunin μM 3: 1.90 (IL-37 μM: 1); S. aureus USA300, Lugdunin μM 0: 2.49 (IL-37 μM: 2); S. aureus USA300, Lugdunin μM 1: 1.28 (IL-37 μM: 2); S. aureus USA300, Lugdunin μM 2: 0.89 (IL-37 μM: 2); S. aureus USA300, Lugdunin μM 3: 0.38 (IL-37 μM: 2) DOUBTS OF THE COPYIST ABOUT THIS PICTURE: Panel a, third matrix: the row label reads IL-37, but it may be LL-37, as printed in panels b and c. / Panel a: the picture prints no measure for the matrix numbers, only the colour scale 'Growth – Killing, S. aureus USA300'. Each cell is a combination of Lugdunin (column, μM) with the peptide (row, μM). / Panel a: rows and columns at 0 μM are a single agent or the untreated control. […]

[2] = system: P. aeruginosa; experiment: Antimicrobial testing (CFU) against P. aeruginosa; assay type: cell-based, Pseudomonas aeruginosa; conditions: 3 h
[3] = system: E. faecalis; experiment: Antimicrobial testing (CFU) against E. faecalis; assay type: cell-based, Enterococcus faecalis; conditions: 3 h, mean
[4] = single peptide 0.4 µM, PBS + 0.1% TSB, 37 °C
[5] = single peptide 1 µM, PBS + 0.1% TSB, 37 °C, mean of at least three experiments

Row | Substance | S. aureus USA300 CFU normalized to untreated control (1.00) [1, 4] | S. aureus USA300 CFU normalized to untreated control (1.00) ([1]; single peptide 0.6 µM) | S. aureus USA300 CFU normalized to untreated control (1.00) ([1]; single peptide 0.8 µM) | S. aureus USA300 CFU normalized to untreated control (1.00) ([1]; single peptide 1 µM) | S. aureus USA300 CFU normalized to untreated control (1.00) ([1]; single peptide 2 µM) | P. aeruginosa CFU normalized to untreated control (1,00) [2, 5] | P. aeruginosa CFU normalized to untreated control (1,00) ([2]; single peptide 2 µM, mean) | P. aeruginosa CFU normalized to untreated control (1,00) ([2]; single peptide 3 µM, mean) | E. faecalis CFU normalized to untreated control (1,00) ([3]; single peptide 1 µM) | E. faecalis CFU normalized to untreated control (1,00) ([3]; single peptide 2 µM) | E. faecalis CFU normalized to untreated control (1,00) ([3]; single peptide 3 µM) | antimicrobial activity on co-incubation with human AMPs (in words) ([1]; S. aureus USA300, text to Supp Figs 5, 6)
1 | IASKFLCTPGCAKTGSFNSYCC (also: bicyclic or more (positions not given here)) [Gallidermin, bacteriocin isolated from Staphylococcus gallinarum] | 0,84 | 0,91 | 0,74 | – | – | – | – | – | – | – | – | –
2 | ITSISLCTPGCKTGALMGCNMKTATCHCSIHVSK (not fully specified (bridges); also: lanthionine rings, places not given here) [Nisin, bacteriocin of Lactococcus lactis, purchased from Sigma] | 1,31 | 1,49 | 1,49 | – | – | – | – | – | – | – | – | –
3 | LLGDFFRKSKEKIGKEFKRIVQRIKDFLRNLVPRTES [LL-37, human cathelicidin AMP] | – | – | – | 1,86 | 2,49 | – | – | – | – | – | – | –
4 | Lugdunin | – | – | – | 1,08 | 1,11 | 1,34 | 1,01 | 1,41 | 1,21 | 1,27 | 0,99 | –
5 | MEAVKEKNELFDLDVKVNAKESNDSGAEPRIASKFLCTPGCAKTGSFNSYCC [Pro-Gallidermin, non-bactericidal pro-form of gallidermin] | 1,34 | 1,61 | 1,30 | – | – | – | – | – | – | – | – | did not lead to antimicrobial activity
6 | SSLLEKGLDGAKKAVGGLGKLGKDAVEDLESVGKGAVHDVKDVLDSV [DCD-1, dermcidin-derived human AMP of eccrine sweat glands] | – | – | – | 1,06 | 1,19 | 0,93 | 1,21 | – | 1,48 | 1,58 | – | –
7 | SSLLEKGLDGAKKAVGGLGKLGKDAVEDLESVGKGAVHDVKDVLDSVL [DCD-1L, dermcidin-derived human AMP of eccrine sweat glands] | – | – | – | 1,13 | – | 1,39 | 1,19 | – | 1,40 | 1,55 | – | –
